Assay results reported in patent publication US20230322815A1, “NOVEL COMPOUNDS AND THERAPEUTIC USES THEREOF” (University of Huddersfield, priority 2020, published 2023).

Experiments:
[1] = Direct ATP hydrolysis by the complex (mass spectroscopy); details: ATP incubated with complex alone
Text: There are several potential mechanisms which could lead the observed kinase inhibition ‘readout’ of this screen including, i) direct ATP hydrolysis by the complex(es) and differing Km of the kinases for ATP, and, ii) dephosphorylation of the peptide substrate by the phosphatase activity of the Zn^2+ complex resulting in cycles of peptide phosphorylation by active recombinant enzyme and dephosphorylation by the complex.

[2] = system: panel of human cancer (HT-29, DLD-1, HCT116 p53^+/+ and p53^−/−, PSN1, MiaPaCa2, BxPC3, A549, H460, GBM1) and non-cancer cell lines (ARPE-19, MCF10A, NP1); experiment: Chemosensitivity of a panel of human cancer and non-cancer cell lines (MTT, 96 h); assay type: cell-based; details: for IC50: HT-29, DLD-1, HCT116 (p53 wild type and null), BxPC3, A549 and H460 cell lines, 96 h, MTT
Protocol: FIG. 7. Chemosensitivity response of a panel of human cancer and non-cancer cell lines to 96 h continuous exposure to self-assembling test compounds. a, The potency of compounds tested against cancer (HT-29, DLD-1, HCT116 p53^+/+ and […], PSN1, MiaPaCa2, BxPC3, A549, H460 and GBM1) and non-cancer cells (ARPE-19, MCF10A and NP1). Each value represents the mean IC50±standard deviation from a minimum of three independent experiments. b,c, The selectivity index (SI) for [L2Cu3]^6+ (b) and [L2Zn3]^6+ (c) for the indicated cancer cell lines; SI is defined as the mean IC50 against the particular non-cancer cell line model divided by the mean IC50 against the particular cancer cell line. […] As the SI value is calculated using the mean IC50 values, experimental error is not included in these figures. d,e, IC50 values for the clinically approved platinates (cisplatin, oxaliplatin and carboplatin) and [L2Mn3]^6+ and the corresponding SI results.
All cell lines used were maintained at low passage in antibiotic-free media and were obtained from ATCC (LGC Standards, Middlesex, UK) unless otherwise stated (Methods). HT29, DLD-1, HCT116 p53^+/+ and HCT116 p53^−/− are all colorectal adenocarcinoma cell lines derived from different individuals and harbor different combinations of oncogenic lesions (except for the HCT116 isogenic cancer cell clones that are genetically identical except for p53 status). PSN-1, BxPC-3 and MiaPaCa2 are pancreatic carcinoma cell lines and A549 and H460 are lung carcinoma cell lines. HT29, DLD-1, PSN-1, BxPC-3, A549 and H460 cell lines were cultured in RPMI-1640 growth media (Sigma) containing 2 mM L-glutamine, 1 mM sodium pyruvate and 10% fetal bovine serum (FBS). HCT116 (p53^+/+ and p53^−/−) and MiaPaCa2 cell lines were cultured in Dulbecco's Modified Eagle's Medium (Sigma), 2 mM L-glutamine and 10% FBS. The ARPE-19 retinal epithelial non-cancer cell line (Dunn et al., 1996) was cultured in DMEM/F12 media (Gibco), 2 mM L-glutamine, 1 mM sodium pyruvate and 10% FBS. The MCF10A non-cancerous human breast epithelial cell line was cultured in Minimal Essential Media Eagle (Sigma), 2 mM L-glutamine, 1 mM sodium pyruvate, 10% FBS and 1×non-essential amino acids (NEAA). NP1 and GBM1 cells were cultured on plasticware coated with poly-L-ornithine (5 μg/ml) and laminin (2.4 μg/ml) (Polson et al., 2018; Da Silva et al., 2019). […]
[L2M3]^6+ and all the other self-assembling complexes were freshly formed by adding DMSO to individual components mixing together by pipetting. […] Media and MTT were removed and formazan crystals were dissolved in 150 μl of DMSO and the absorbance of the resulting solution determined at 540 nm. […]

[3] = Phosphatase activity: hydrolysis of phenyl phosphate
Protocol: FIG. 6. Phosphatase activity of [L2Zn3]^6+. ^31P NMR spectra using different substrates including PhOPO3 (spectra A to D), serine phosphate (spectra E to H), threonine phosphate (spectra I to L) and tyrosine phosphate (spectra M to P). Specific details for each ^31P NMR spectra are as follows: Spectra A, E, I and M represent substrate alone (44 hrs incubated @ 37° C.); Spectra B, F, J and N represents [L2Zn3]^6+ plus substrate (t=0 min); Spectra C, G, K and O represents [L2Zn3]^6+ plus substrate incubated @ 37° C. for 19 hours; Spectra D, H, L and […] represents [L2Zn3]^6+ plus substrate incubated @ 37° C. for 44 hours. The ^31P NMR of [L2Zn3(PO4)]^3+ gives a signal at 8.6 ppm.
Only [L2Zn3(PO4)]^3+ was observed, coupled with a rapid yellowing of the solution due to the formation of 4-nitrophenolate.
The rate of substrate hydrolysis is also dependent upon the metal used in the self-assembly process.

Structure (SMILES)	hydrolysis of ATP [1]	IC50 [2]	hydrolysis of PhOPO3^2− by 31P NMR ([3]; 25%:75% DMSO and buffered H2O (HEPES pH 7.5), 37° C., after 44 hrs)	selectivity indices ([2]; many of the cancer cell lines)	hydrolysis of phenyl phosphate ([3]; solid-state and ESI-MS data)
[Zn+2].[Zn+2].[Zn+2].c1ccc(-c2csc(NCCN(CCNc3nc(-c4ccccn4)cs3)CCNc3nc(-c4ccccn4)cs3)n2)nc1.c1ccc(-c2csc(NCCN(CCNc3nc(-c4ccccn4)cs3)CCNc3nc(-c4ccccn4)cs3)n2)nc1 [[L2Zn3]^6+]	little or no hydrolysis of ATP	mostly sub-μM	virtually no signal corresponding to PhOPO3^2− is observed	–	–
[Cu+2].[Cu+2].[Cu+2].c1ccc(-c2csc(NCCN(CCNc3nc(-c4ccccn4)cs3)CCNc3nc(-c4ccccn4)cs3)n2)nc1.c1ccc(-c2csc(NCCN(CCNc3nc(-c4ccccn4)cs3)CCNc3nc(-c4ccccn4)cs3)n2)nc1 [[L2Cu3]^6+]	little or no hydrolysis of ATP	mostly sub-μM	–	> 100	does not hydrolyse phenyl phosphate
